Assays:
[1] = Ability to inhibit formation of the TatTAR complex by binding to the closing GC or CG base pair and adjacent nucleotides of loops in the TAR RNA.
Nucleic Acid [2] = assay: Ability to inhibit the formation of the U1A-stem loop 2 RNA complex using gel mobility shift assay; assay type: nucleic-acid assay
Nucleic Acid [3] = assay: Ability to inhibit the […]-RNA complex formation; assay type: nucleic-acid assay

| IC50 [1] [µM] | IC50 (Nucleic Acid [2]) [µM] | IC50 (Nucleic Acid [3]) [µM] | Compound |
| --- | --- | --- | --- |
| 10 | 10000 |  | Nc1nc(N)c2c(N)c(N)ccc2n1 |
| 22 | 1 | 1 | COc1ccc2nc3cc(Cl)ccc3c(NCCCN(CCCN)CCCCN)c2c1 |

From ChEMBL document CHEMBL1135200, “Inhibition of the U1A-RNA complex by an aminoacridine derivative” (Bioorg Med Chem Lett, 2002)
